Data as given in ChEMBL document CHEMBL3352542, “Synthesis, biological evaluation and molecular modeling study of 2-(1,3,4-thiadiazolyl-thio and 4-methyl-thiazolyl-thio)-quinazolin-4-ones as a new class of DHFR inhibitors” (Bioorg Med Chem Lett, 2014).
Calls of active or inactive are those of the source. The rule behind the calls is not given here.

Assays:
[1] = Growth inhibition of human BT549 cells at 10 uM after 48 hrs; format: functional; conditions: BT-549, 48 h, read-out: GI
[2] = Growth inhibition of human HCT15 cells at 10 uM after 48 hrs; format: functional; conditions: HCT-15, 48 h, read-out: GI
SNB-75 = assay: Growth inhibition of human SNB75 cells at 10 uM after 48 hrs; format: functional; conditions: SNB-75, 48 h, read-out: GI
Escherichia coli [3] = assay: Antimicrobial activity against Escherichia coli assessed as inhibition zone at 200 ug/disk after 24 hrs by disc-diffusion method; format: functional; conditions: for zone of inhibition at 200 µg/disc: read-out: IZ
CAKI-1 = assay: Growth inhibition of human CAKI-1 cells at 10 uM after 48 hrs; format: functional; conditions: CAKI-1, 48 h, read-out: GI
Pseudomonas aeruginosa [4] = assay: Antimicrobial activity against Pseudomonas aeruginosa assessed as inhibition zone at 200 ug/disk after 24 hrs by disc-diffusion method; format: functional; conditions: for zone of inhibition at 200 µg/disc: read-out: IZ
[5] = Growth inhibition of human LOXIMVI cells at 10 uM after 48 hrs; format: functional; conditions: LOX IMVI, read-out: GI
[6] = Growth inhibition of human RXF393 cells at 10 uM after 48 hrs; format: functional; conditions: RXF 393, 48 h, read-out: GI
Bacillus subtilis [7] = assay: Antimicrobial activity against Bacillus subtilis assessed as inhibition zone at 200 ug/disk after 24 hrs by disc-diffusion method; format: functional; conditions: for zone of inhibition at 200 µg/disc: read-out: IZ
Dihydrofolate reductase = target: T1, Dihydrofolate reductase (Bos taurus, UniProt P00376); assay: Inhibition of bovine liver DHFR
T1 sequence (P00376 whole entry): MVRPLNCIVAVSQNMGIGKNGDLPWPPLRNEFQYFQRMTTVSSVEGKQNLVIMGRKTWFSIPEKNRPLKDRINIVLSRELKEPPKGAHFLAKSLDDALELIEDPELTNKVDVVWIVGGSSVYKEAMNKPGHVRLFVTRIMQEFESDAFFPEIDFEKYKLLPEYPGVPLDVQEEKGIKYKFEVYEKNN

[8] = Growth inhibition of human RPMI8226 cells at 10 uM after 48 hrs; format: functional; conditions: RPMI-8226, 48 h, read-out: GI
[9] = Growth inhibition of human UACC62 cells at 10 uM after 48 hrs; format: functional; conditions: UACC-62, 48 h, read-out: GI
[10] = Growth inhibition of human SF295 cells at 10 uM after 48 hrs; format: functional; conditions: SF-295, 48 h, read-out: GI
SNB-19 = assay: Growth inhibition of human SNB19 cells at 10 uM after 48 hrs; format: functional; conditions: SNB-19, 48 h, read-out: GI
[11] = Growth inhibition of human OVCAR8 cells at 10 uM after 48 hrs; format: functional; conditions: OVCAR-8, 48 h, read-out: GI
[12] = Growth inhibition of human HOP92 cells at 10 uM after 48 hrs; format: functional; conditions: HOP-92, 48 h, read-out: GI
SK-MEL-5 = assay: Growth inhibition of human SK-MEL-5 cells at 10 uM after 48 hrs; format: functional; conditions: SK-MEL-5, 48 h, read-out: GI
Candida albicans [13] = assay: Antimicrobial activity against Candida albicans assessed as inhibition zone at 200 ug/disk after 24 hrs by disc-diffusion method; format: functional; conditions: for zone of inhibition at 200 µg/disc: read-out: IZ
786-0 = assay: Growth inhibition of human 786-0 cells at 10 uM after 48 hrs; format: functional; conditions: 786-0, 48 h, read-out: GI
K562 = assay: Growth inhibition of human K562 cells at 10 uM after 48 hrs; format: functional; conditions: K562, 48 h, read-out: GI
[14] = Growth inhibition of human NCI-ADR-RES cells at 10 uM after 48 hrs; format: functional; conditions: read-out: GI
A549 = assay: Growth inhibition of human A549 cells at 10 uM after 48 hrs; format: functional; conditions: A549, 48 h, read-out: GI
A498 = assay: Growth inhibition of human A498 cells at 10 uM after 48 hrs; format: functional; conditions: A498, 48 h, read-out: GI
[15] = Growth inhibition of human UO31 cells at 10 uM after 48 hrs; format: functional; conditions: UO-31, 48 h, read-out: GI
[16] = Growth inhibition of human OVCAR5 cells at 10 uM after 48 hrs; format: functional; conditions: OVCAR-5, 48 h, read-out: GI
[17] = Growth inhibition of human PC3 cells at 10 uM after 48 hrs; format: functional; conditions: PC-3, 48 h, read-out: GI
SF-268 = assay: Growth inhibition of human SF268 cells at 10 uM after 48 hrs; format: functional; conditions: SF-268, 48 h, read-out: GI
MDA-MB-231 = assay: Growth inhibition of human MDA-MB-231 cells at 10 uM after 48 hrs; format: functional; conditions: MDA-MB-231, 48 h, read-out: GI
U-251 = assay: Growth inhibition of human U251 cells at 10 uM after 48 hrs; format: functional; conditions: U-251, 48 h, read-out: GI
Staphylococcus aureus [18] = assay: Antimicrobial activity against Staphylococcus aureus assessed as inhibition zone at 200 ug/disk after 24 hrs by disc-diffusion method; format: functional; conditions: for zone of inhibition at 200 µg/disc: read-out: IZ
[19] = Growth inhibition of human OVCAR4 cells at 10 uM after 48 hrs; format: functional; conditions: OVCAR-4, 48 h, read-out: GI
KM12 = assay: Growth inhibition of human KM12 cells at 10 uM after 48 hrs; format: functional; conditions: KM12, 48 h, read-out: GI
[20] = Growth inhibition of human HCT116 cells at 10 uM after 48 hrs; format: functional; conditions: HCT-116, 48 h, read-out: GI
[21] = Growth inhibition of human Hs 578T cells at 10 uM after 48 hrs; format: functional; conditions: read-out: GI
[22] = Growth inhibition of human SF539 cells at 10 uM after 48 hrs; format: functional; conditions: SF-539, 48 h, read-out: GI
HT-29 = assay: Growth inhibition of human HT-29 cells at 10 uM after 48 hrs; format: functional; conditions: HT-29, 48 h, read-out: GI
SR = assay: Growth inhibition of human SR cells at 10 uM after 48 hrs; format: functional; conditions: read-out: GI
T47D = assay: Growth inhibition of human T47D cells at 10 uM after 48 hrs; format: functional; conditions: read-out: GI
NCI-H23 = assay: Growth inhibition of human NCI-H23 cells at 10 uM after 48 hrs; format: functional; conditions: NCI-H23, 48 h, read-out: GI
[23] = Growth inhibition of human UACC257 cells at 10 uM after 48 hrs; format: functional; conditions: UACC-257, 48 h, read-out: GI
[24] = Growth inhibition of human MOLT4 cells at 10 uM after 48 hrs; format: functional; conditions: MOLT-4, 48 h, read-out: GI
SN12C = assay: Growth inhibition of human SN12C cells at 10 uM after 48 hrs; format: functional; conditions: read-out: GI
M14 = assay: Growth inhibition of human M14 cells at 10 uM after 48 hrs; format: functional; conditions: M14, 48 h, read-out: GI
Staphylococcus aureus [25] = assay: Antimicrobial activity against Staphylococcus aureus assessed as inhibition of visible growth after 24 hrs by disc-diffusion method; format: functional, organism-based
Candida albicans [26] = assay: Antimicrobial activity against Candida albicans assessed as inhibition of visible growth after 24 hrs by disc-diffusion method; format: functional, organism-based
Pseudomonas aeruginosa [27] = assay: Antimicrobial activity against Pseudomonas aeruginosa assessed as inhibition of visible growth after 24 hrs by disc-diffusion method; format: functional, organism-based
Bacillus subtilis [28] = assay: Antimicrobial activity against Bacillus subtilis assessed as inhibition of visible growth after 24 hrs by disc-diffusion method; format: functional, organism-based
Escherichia coli [29] = assay: Antimicrobial activity against Escherichia coli assessed as inhibition of visible growth after 24 hrs by disc-diffusion method; format: functional, organism-based

COc1ccc(-n2c(Sc3sc(N)nc3C)nc3ccc(C)cc3c2=O)cc1
inhibition of growth at 10 µM [1]: 20.6%
inhibition of growth at 10 µM [2]: 25.3%
inhibition of growth at 10 µM (SNB-75): 11.9%
zone of inhibition at 200 µg/disc (Escherichia coli [3]): 8 mm
inhibition of growth at 10 µM (CAKI-1): 11.5%
zone of inhibition at 200 µg/disc (Pseudomonas aeruginosa [4]): 8 mm
inhibition of growth at 10 µM [5]: 11%
inhibition of growth at 10 µM [6]: 28%
zone of inhibition at 200 µg/disc (Bacillus subtilis [7]): 8 mm
IC50 (Dihydrofolate reductase): 7 µM
inhibition of growth at 10 µM [8]: 16.2%
inhibition of growth at 10 µM [9]: 15.4%
inhibition of growth at 10 µM [10]: 10.6%
inhibition of growth at 10 µM (SNB-19): 15.5%
inhibition of growth at 10 µM [11]: 13.4%
inhibition of growth at 10 µM [12]: 42.3%
inhibition of growth at 10 µM (SK-MEL-5): 15.7%
zone of inhibition at 200 µg/disc (Candida albicans [13]): 8 mm
inhibition of growth at 10 µM (786-0): 12%
inhibition of growth at 10 µM (K562): 13%
inhibition of growth at 10 µM [14]: 11.3%
inhibition of growth at 10 µM (A549): 15.6%
inhibition of growth at 10 µM (A498): 24.6%
inhibition of growth at 10 µM [15]: 26.2%
inhibition of growth at 10 µM [16]: 17.9%
inhibition of growth at 10 µM [17]: 15.9%
inhibition of growth at 10 µM (SF-268): 10.6%
inhibition of growth at 10 µM (MDA-MB-231): 25%
inhibition of growth at 10 µM (U-251): 15.7%
zone of inhibition at 200 µg/disc (Staphylococcus aureus [18]): 8 mm
inhibition of growth at 10 µM [19]: 12.9%
inhibition of growth at 10 µM (KM12): 19.4%
inhibition of growth at 10 µM [20]: 19.1%

Cc1ccc2nc(Sc3sc(N)nc3C)n(-c3ccc(Cl)cc3)c(=O)c2c1
inhibition of growth at 10 µM [1]: 33.1%
inhibition of growth at 10 µM [2]: 27.7%
zone of inhibition at 200 µg/disc (Escherichia coli [3]): 8 mm
inhibition of growth at 10 µM (CAKI-1): 11.2%
inhibition of growth at 10 µM [21]: 12.6%
zone of inhibition at 200 µg/disc (Pseudomonas aeruginosa [4]): 8 mm
inhibition of growth at 10 µM [5]: 16.5%
inhibition of growth at 10 µM [6]: 28.5%
zone of inhibition at 200 µg/disc (Bacillus subtilis [7]): 8 mm
IC50 (Dihydrofolate reductase): 7 µM
inhibition of growth at 10 µM [22]: 13.9%
inhibition of growth at 10 µM [9]: 26%
inhibition of growth at 10 µM [10]: 18.2%
inhibition of growth at 10 µM (SNB-19): 11.6%
inhibition of growth at 10 µM (HT-29): 11.7%
inhibition of growth at 10 µM [11]: 10.8%
inhibition of growth at 10 µM [12]: 43.3%
inhibition of growth at 10 µM (SK-MEL-5): 16.3%
zone of inhibition at 200 µg/disc (Candida albicans [13]): 8 mm
inhibition of growth at 10 µM (786-0): 29.3%
inhibition of growth at 10 µM (K562): 15.6%
inhibition of growth at 10 µM [14]: 17.5%
inhibition of growth at 10 µM (A549): 16.9%
inhibition of growth at 10 µM (SR): 49.2%
inhibition of growth at 10 µM (T47D): 12.4%
inhibition of growth at 10 µM (A498): 53%
inhibition of growth at 10 µM (NCI-H23): 10.1%
inhibition of growth at 10 µM [15]: 46%
inhibition of growth at 10 µM [23]: 13.6%
inhibition of growth at 10 µM [16]: 12.1%
inhibition of growth at 10 µM [17]: 28.6%
inhibition of growth at 10 µM [24]: 19%
inhibition of growth at 10 µM (SF-268): 13.2%
inhibition of growth at 10 µM (MDA-MB-231): 13%
inhibition of growth at 10 µM (U-251): 21.5%
inhibition of growth at 10 µM (SN12C): 12.8%
zone of inhibition at 200 µg/disc (Staphylococcus aureus [18]): 8 mm
inhibition of growth at 10 µM (KM12): 24.6%
inhibition of growth at 10 µM [20]: 22.8%
inhibition of growth at 10 µM (M14): 15.6%

GENTAMICIN
inhibition zone (IZ) (Escherichia coli [3]): 18 mm
inhibition zone (IZ) (Pseudomonas aeruginosa [4]): 21 mm
Activity (Staphylococcus aureus [25]): Active
Activity (Candida albicans [26]): Active
inhibition zone (IZ) (Bacillus subtilis [7]): 25 mm
Activity (Pseudomonas aeruginosa [27]): Active
inhibition zone (IZ) (Candida albicans [13]): 19 mm
Activity (Bacillus subtilis [28]): Active
Activity (Escherichia coli [29]): Active
inhibition zone (IZ) (Staphylococcus aureus [18]): 27 mm

CC(=O)NS(=O)(=O)c1ccc(N)cc1 [SULFACETAMIDE]
zone of inhibition at 200 µg/disc (Escherichia coli [3]): 18 mm
zone of inhibition at 200 µg/disc (Pseudomonas aeruginosa [4]): 28 mm
Activity (Staphylococcus aureus [25]): Active
Activity (Candida albicans [26]): Active
zone of inhibition at 200 µg/disc (Bacillus subtilis [7]): 22 mm
Activity (Pseudomonas aeruginosa [27]): Active
zone of inhibition at 200 µg/disc (Candida albicans [13]): 25 mm
Activity (Bacillus subtilis [28]): Active
Activity (Escherichia coli [29]): Active
zone of inhibition at 200 µg/disc (Staphylococcus aureus [18]): 20 mm
